Measured values taken from BindingDB's records for doi:10.1021/jm020211+ (National Institute of Diabetes and Digestive and Kidney …, 2002).

Biological target: T1, Adenosine receptor A3 (Homo sapiens, UniProt P0DMS8)
T1 sequence (P0DMS8 whole entry): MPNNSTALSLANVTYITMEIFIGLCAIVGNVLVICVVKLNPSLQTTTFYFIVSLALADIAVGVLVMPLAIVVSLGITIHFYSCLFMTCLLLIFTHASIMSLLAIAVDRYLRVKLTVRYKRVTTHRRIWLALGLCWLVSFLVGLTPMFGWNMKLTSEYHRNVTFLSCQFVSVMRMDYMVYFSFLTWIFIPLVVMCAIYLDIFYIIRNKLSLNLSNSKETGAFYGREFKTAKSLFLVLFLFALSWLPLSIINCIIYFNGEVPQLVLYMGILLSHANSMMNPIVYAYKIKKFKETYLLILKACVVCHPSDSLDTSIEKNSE
Assay: Effect on forskolin-stimulated cyclic AMP production in intact chinese hamster ovary (CHO) cell expressing the human Adenosine A3 receptor

EC50: 803 nM
Compound: Nc1nc(Cl)nc2c1ncn2C1C(O)C(O)C2(CO)CC12 (stereo unspecified) [4-(6-Amino-2-chloro-purin-9-yl)-1-hydroxymethyl-bicyclo[3.1.0]hexane-2,3-diol]
